From paper PMC7920811 (Neoplasia (New York, N.Y.), 2021) come the findings set out here.

The target in the assay is STAT3 (Homo sapiens, UniProt P40763). As to the kind of experiment: label-free microscale thermophoresis. The format is binding.
STAT3, sequence (P40763 2-770): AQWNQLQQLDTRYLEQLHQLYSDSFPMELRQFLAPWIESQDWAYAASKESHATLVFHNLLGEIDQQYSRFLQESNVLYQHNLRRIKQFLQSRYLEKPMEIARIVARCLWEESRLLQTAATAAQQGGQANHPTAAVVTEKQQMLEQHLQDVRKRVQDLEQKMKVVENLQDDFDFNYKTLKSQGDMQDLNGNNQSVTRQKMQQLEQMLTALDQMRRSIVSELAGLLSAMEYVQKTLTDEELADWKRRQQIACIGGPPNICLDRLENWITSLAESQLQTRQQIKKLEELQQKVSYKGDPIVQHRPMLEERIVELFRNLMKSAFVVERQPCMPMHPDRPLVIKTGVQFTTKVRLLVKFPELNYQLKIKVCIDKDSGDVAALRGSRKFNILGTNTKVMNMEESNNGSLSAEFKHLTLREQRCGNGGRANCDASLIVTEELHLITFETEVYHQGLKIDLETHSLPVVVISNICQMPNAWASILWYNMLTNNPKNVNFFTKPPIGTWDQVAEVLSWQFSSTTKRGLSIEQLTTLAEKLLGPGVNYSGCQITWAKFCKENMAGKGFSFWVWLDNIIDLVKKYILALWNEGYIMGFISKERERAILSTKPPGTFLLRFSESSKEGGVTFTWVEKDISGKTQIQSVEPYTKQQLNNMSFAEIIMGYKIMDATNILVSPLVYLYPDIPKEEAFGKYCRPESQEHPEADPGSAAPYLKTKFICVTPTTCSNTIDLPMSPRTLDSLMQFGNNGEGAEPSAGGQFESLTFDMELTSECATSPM

As to `CC(=O)Nc1ccc(O)cc1` [AAP, acetaminophen], binding was put at a Kd of 0.6 ± 0.4 µM.
